These compounds were tested against T1, Human complement C1s enzyme (Homo sapiens, UniProt P09871) (assay: Human C1s enzyme assay). Details: human complement C1s enzyme 1.16 nM, substrate Z-L-Lys-SBzl 100 μM, 5 min preincubation; read-out: IC50 (Stars), C1s Inhibiting Activity.
T1 sequence (P09871 438-688 limits assumed): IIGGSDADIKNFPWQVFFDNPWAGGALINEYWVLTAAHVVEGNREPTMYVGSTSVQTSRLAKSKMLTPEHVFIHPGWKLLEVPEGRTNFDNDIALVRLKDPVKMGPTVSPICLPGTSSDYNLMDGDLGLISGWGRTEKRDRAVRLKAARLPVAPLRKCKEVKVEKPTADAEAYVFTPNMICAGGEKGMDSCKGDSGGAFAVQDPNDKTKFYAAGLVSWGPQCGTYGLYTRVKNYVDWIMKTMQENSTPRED
T1 sequence (P09871 16-437 partner limits assumed): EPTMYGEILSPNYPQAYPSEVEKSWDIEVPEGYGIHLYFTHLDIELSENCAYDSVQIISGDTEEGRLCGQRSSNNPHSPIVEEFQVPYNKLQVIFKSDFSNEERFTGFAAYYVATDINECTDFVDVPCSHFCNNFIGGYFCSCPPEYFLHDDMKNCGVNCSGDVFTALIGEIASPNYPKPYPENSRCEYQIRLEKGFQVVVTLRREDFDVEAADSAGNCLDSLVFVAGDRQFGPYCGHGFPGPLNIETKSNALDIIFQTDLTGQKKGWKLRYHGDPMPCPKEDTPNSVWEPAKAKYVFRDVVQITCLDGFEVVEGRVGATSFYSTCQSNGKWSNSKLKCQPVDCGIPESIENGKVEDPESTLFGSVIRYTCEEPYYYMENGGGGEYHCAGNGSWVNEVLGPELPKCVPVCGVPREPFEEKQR
Assay type: biochemical
Procedure: Other standard complement assays are also available.
Human complement C1s enzyme (purified from human serum, Complement Technology, Inc.) at 1.16 nM final concentration was incubated with test compound at various concentrations for 5 min at room temperature in 50 mM Tris, 1 M NaCl, pH 7.5. A synthetic substrate Z-L-Lys-SBzl and DTNB (Ellman's reagent) were added to final concentrations of 100 μM each. Absorbance at 405 nm (A405) was recorded at 30 second intervals for 30 min using a microplate spectrophotometer. IC50 values were calculated by nonlinear regression of complement C1 s reaction rates as a function of test compound concentration.
ND indicates a compound for which the IC50 value is not determined.

IC50 [nM] | SMILES
< 100 | COC[C@@H]1C[C@@H](C(=O)NCc2cc3cnccc3[nH]2)N(C(=O)CNC(=O)c2cccc(Oc3ccc(C)cc3F)c2)C1 (relative stereo) [Compound 318, (2S,4R*)-N-((1H-pyrrolo[3,2-c]pyridin-2-yl)methyl)-1-((3-(2-fluoro-4-methylphenoxy)benzoyl)glycyl)-4-(methoxymethyl)pyrrolidine-2-carboxamide]
< 100 | CC(NC(=O)[C@@H]1CC2(CN1C(=O)CNC(=O)c1ccc3c(c1)Oc1ccccc1S3)OCCO2)c1cc2cnccc2[nH]1 (stereo in doubt) [Compound 102, (S)-N-((S)-1-(1H-pyrrolo[3,2-c]pyridin-2-yl)ethyl)-7-((phenoxathiine-3-carbonyl)glycyl)-1,4-dioxa-7-azaspiro[4.4]nonane-8-carboxamide]
> 1000 | C[C@@]12C[C@@H]1N(C(=O)CNC(=O)c1ccc(Oc3ccccc3)cc1)[C@H](C(=O)NCc1cc3c(s1)C(N)=NCC3)C2 [Compound 1, (1S,3S,5S)-N-((7-amino-4,5-dihydrothieno[2,3-c]pyridin-2-yl)methyl)-5-methyl-2-((4-phenoxybenzoyl)glycyl)-2-azabicyclo[3.1.0]hexane-3-carboxamide]
< 100 | O=C(NCC(=O)N1CC2(C[C@H]1C(=O)NCc1cc3cnccc3[nH]1)OCCO2)c1ccc2c(c1)-c1ccccc1C2(F)F [Compound 2, (S)-N-((1H-pyrrolo[3,2-c]pyridin-2-yl)methyl)-7-((9,9-difluoro-9H-fluorene-3-carbonyl)glycyl)-1,4-dioxa-7-azaspiro[4.4]nonane-8-carboxamide]
> 1000 | O=C(NCC(=O)N1CC2(C[C@H]1C(=O)NCc1cc3ccccc3[nH]1)OCCO2)c1ccc2c(c1)-c1ccccc1C2(F)F [Compound 3, (S)-N-((1H-indol-2-yl)methyl)-7-((9,9-difluoro-9H-fluorene-3-carbonyl)glycyl)-1,4-dioxa-7-azaspiro[4.4]nonane-8-carboxamide]
< 100 | O=C(NCC(=O)N1CC2(C[C@H]1C(=O)NCc1cc3cnccc3[nH]1)OCCO2)c1ccc2c(c1)Oc1ccccc1S2 [Compound 4, (S)-N-((1H-pyrrolo[3,2-c]pyridin-2-yl)methyl)-7-((phenoxathiine-3-carbonyl)glycyl)-1,4-dioxa-7-azaspiro[4.4]nonane-8-carboxamide]
< 100 | COC[C@@]1(F)C[C@@H](C(=O)NCc2cc3cnccc3[nH]2)N(C(=O)CNC(=O)c2ccc3c(c2)-c2ccccc2C3(F)F)C1 [Compound 5, (2S,4R)-N-((1H-pyrrolo[3,2-c]pyridin-2-yl)methyl)-1-((9,9-difluoro-9H-fluorene-3-carbonyl)glycyl)-4-fluoro-4-(methoxymethyl)pyrrolidine-2-carboxamide]
< 100 | O=C(NCC(=O)N1C[C@@](F)(CF)C[C@H]1C(=O)NCc1cc2cnccc2[nH]1)c1ccc2c(c1)-c1ccccc1C2(F)F [Compound 6, (2S,4R)-N-((1H-pyrrolo[3,2-c]pyridin-2-yl)methyl)-1-((9,9-difluoro-9H-fluorene-3-carbonyl)glycyl)-4-fluoro-4-(fluoromethyl)pyrrolidine-2-carboxamide]
< 100 | CS(=O)(=O)[C@@H]1C[C@@H](C(=O)NCc2cc3cnccc3[nH]2)N(C(=O)CNC(=O)c2ccc3c(c2)-c2ccccc2C3(F)F)C1 [Compound 7, (2S,4R)-N-((1H-pyrrolo[3,2-c]pyridin-2-yl)methyl)-1-((9,9-difluoro-9H-fluorene-3-carbonyl)glycyl)-4-(methylsulfonyl)pyrrolidine-2-carboxamide]
< 100 | O=C(NCC(=O)N1C[C@H](OC(F)F)C[C@H]1C(=O)NCc1cc2cnccc2[nH]1)c1ccc2c(c1)-c1ccccc1C2(F)F [Compound 8, (2S,4R)-N-((1H-pyrrolo[3,2-c]pyridin-2-yl)methyl)-1-((9,9-difluoro-9H-fluorene-3-carbonyl)glycyl)-4-(difluoromethoxy)pyrrolidine-2-carboxamide]
100 to 1000 | O=C(NCC(=O)N1CC2(C[C@H]1C(=O)NCc1cc3ccncc3[nH]1)OCCO2)c1ccc2c(c1)-c1ccccc1C2(F)F [Compound 9, (S)-N-((1H-pyrrolo[2,3-c]pyridin-2-yl)methyl)-7-((9,9-difluoro-9H-fluorene-3-carbonyl)glycyl)-1,4-dioxa-7-azaspiro[4.4]nonane-8-carboxamide]
> 1000 | O=C(NCC(=O)N1CC2(C[C@H]1C(=O)NCc1cc3cccnc3[nH]1)OCCO2)c1ccc2c(c1)-c1ccccc1C2(F)F [Compound 10, (S)-N-((1H-pyrrolo[2,3-b]pyridin-2-yl)methyl)-7-((9,9-difluoro-9H-fluorene-3-carbonyl)glycyl)-1,4-dioxa-7-azaspiro[4.4]nonane-8-carboxamide]
> 1000 | O=C(NCC(=O)N1CC2(C[C@H]1C(=O)NCc1cc3ccccc3[nH]1)OCCO2)c1ccc(Oc2ccccc2)cc1 [Compound 11, (S)-N-((1H-indol-2-yl)methyl)-7-((4-phenoxybenzoyl)glycyl)-1,4-dioxa-7-azaspiro[4.4]nonane-8-carboxamide]
> 1000 | O=C(NCC(=O)N1CC2(C[C@H]1C(=O)NCc1ccn[nH]1)OCCO2)c1ccc(Oc2ccccc2)cc1 [Compound 12, (S)-N-((1H-pyrazol-5-yl)methyl)-7-((4-phenoxybenzoyl)glycyl)-1,4-dioxa-7-azaspiro[4.4]nonane-8-carboxamide]
> 1000 | C[C@@]12C[C@@H]1N(C(=O)CNC(=O)c1ccc(Oc3ccccc3)cc1)[C@H](C(=O)NCc1cccc(Cl)c1Cl)C2 [Compound 13, (1S,3S,5S)-N-(2,3-dichlorobenzyl)-5-methyl-2-((4-phenoxybenzoyl)glycyl)-2-azabicyclo[3.1.0]hexane-3-carboxamide]
> 1000 | O=C(NCC(=O)N1CC2(C[C@H]1C(=O)NCc1ccc[nH]1)OCCO2)c1ccc(Oc2ccccc2)cc1 [Compound 14, (S)-N-((1H-pyrrol-2-yl)methyl)-7-((4-phenoxybenzoyl)glycyl)-1,4-dioxa-7-azaspiro[4.4]nonane-8-carboxamide]
> 1000 | O=C(NCC(=O)N1CC2(C[C@H]1C(=O)NCc1ncc[nH]1)OCCO2)c1ccc(Oc2ccccc2)cc1 [Compound 15, (S)-N-((1H-imidazol-2-yl)methyl)-7-((4-phenoxybenzoyl)glycyl)-1,4-dioxa-7-azaspiro[4.4]nonane-8-carboxamide]
> 1000 | O=C(NCC(=O)N1CC2(C[C@H]1C(=O)NCc1cc3cncnc3[nH]1)OCCO2)c1ccc2c(c1)-c1ccccc1C2(F)F [Compound 16, (S)-N-((7H-pyrrolo[2,3-d]pyrimidin-6-yl)methyl)-7-((9,9-difluoro-9H-fluorene-3-carbonyl)glycyl)-1,4-dioxa-7-azaspiro[4.4]nonane-8-carboxamide]
< 100 | O=C(NCC(=O)N1CC2(C[C@H]1C(=O)NCc1cc3cnccc3[nH]1)OCCO2)c1ccc(-c2ccccc2)cc1 [Compound 17, (S)-N-((1H-pyrrolo[3,2-c]pyridin-2-yl)methyl)-7-(([1,1′-biphenyl]-4-carbonyl)glycyl)-1,4-dioxa-7-azaspiro[4.4]nonane-8-carboxamide]
< 100 | O=C(NCC(=O)N1C[C@H](OC(F)F)C[C@H]1C(=O)NCc1cc2cnccc2[nH]1)c1ccc(Oc2ccccc2)cc1 [Compound 18, (2S,4R)-N-((1H-pyrrolo[3,2-c]pyridin-2-yl)methyl)-4-(difluoromethoxy)-1-((4-phenoxybenzoyl)glycyl) pyrrolidine-2-carboxamide]
> 1000 | O=C(NCC(=O)N1CC2(C[C@H]1C(=O)NCc1cc3cc(Cl)ccc3[nH]1)OCCO2)c1ccc2c(c1)Oc1ccccc1S2 [Compound 19, (S)-N-((5-chloro-1H-indol-2-yl)methyl)-7-((phenoxathiine-3-carbonyl)glycyl)-1,4-dioxa-7-azaspiro[4.4]nonane-8-carboxamide]
< 100 | O=C(CCCOc1ccccc1)NCC(=O)N1CC2(C[C@H]1C(=O)NCc1cc3cnccc3[nH]1)OCCO2 [Compound 20, (S)-N-((1H-pyrrolo[3,2-c]pyridin-2-yl)methyl)-7-((4-phenoxybutanoyl)glycyl)-1,4-dioxa-7-azaspiro[4.4]nonane-8-carboxamide]
> 1000 | COC[C@@]1(F)C[C@@H](C(=O)N[C@@H](C)c2cc3cnccc3[nH]2)N(C(=O)CNC(=O)c2ccc(Oc3ccccc3)cc2)C1 [Compound 21, (2S,4R)-N-((S)-1-(1H-pyrrolo[3,2-c]pyridin-2-yl)ethyl)-4-fluoro-4-(methoxymethyl)-1-((4-phenoxybenzoyl)glycyl)pyrrolidine-2-carboxamide]
100 to 1000 | C[C@H](NC(=O)[C@@H]1C[C@@H](OC(F)F)CN1C(=O)CNC(=O)c1ccc(Oc2ccccc2)cc1)c1cc2cnccc2[nH]1 [Compound 22, (2S,4R)-N-((S)-1-(1H-pyrrolo[3,2-c]pyridin-2-yl)ethyl)-4-(difluoromethoxy)-1-((4-phenoxybenzoyl)glycyl) pyrrolidine-2-carboxamide]

— patent US20260062443A1 (ALEXION PHARMACEUTICALS, INC., priority 2022, published 2026)
